From patent publication US20240294551A1 (AMGEN INC., priority 2022, published 2024) come the findings set out here.

The test system of one assay is AsPC-1 cells. Description: AsPC-1 CTG Assay (CellTiter-Glo cell viability). In kind it is cell-based, human. To be noted: Homo sapiens, ASPC1, 72 h, AsPC-1, 72 h; first value of the cell; read-out: G12D/C/V Cell Proliferation CTG (72 h) AsPC-1. The essentials: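 Human pancreatic AsPC-1 or colon SW620 cells in RPMI 1640 with 10% FBS, seeded overnight, then exposed to serially diluted compound for 72 h at 37 °C. CellTiter-Glo luminescence normalized to DMSO control; IC50 from a 4-parameter logistic model.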

Assay [1] addresses His-tagged KRAS G12D protein (Homo sapiens (Human), UniProt P01116, G12D). Description: KRAS G12D TR-FRET Assay. Format: binding. To be noted: read-out: KRAS G12D Binding IC50. A digest of the protocol:
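His-tagged KRAS G12D (diluted to 20 nM in pH 7.4 HEPES buffer with 10 mM MgCl2 and 10 μM GDP) was preincubated with titrated compound for 30 min at room temperature. Biotinylated KRPep-2d peptide (diluted to 20 nM) was then added for 1 h, and displacement was monitored by TR-FRET.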

Assay [2] concerns Phosphorylation of ERK1/2 in AsPC-1 cells. Description: Phospho-ERK1/2 MSD Assay. In kind it is cell-based, human. To be noted: Homo sapiens, ASPC1, 2 h, read-out: 2 h p-ERK (AsPC-1 cells), IC50. A digest of the protocol: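 Read-out: MSD electrochemiluminescent detection of phosphorylated ERK1/2 in whole-cell lysates, fitted to a 4-parameter logistic curve for IC50. Prior to lysis, AsPC-1 cells (25,000 per well) received a 2 h compound dose-response at 37 °C.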

Assay [3] has as its target GDP-bound KRAS protein (aa 1-169), containing both G12D and C118A amino acid substitutions (Homo sapiens (Human), UniProt P01116, C118A/G12D). Description: KRAS G12D Coupled Nucleotide Exchange Assay. In kind it is biochemical. To be noted: read-out: KRAS G12D Coupled Exchange IC50.

His-tagged KRAS G12D protein, sequence (P01116 other isoform, or with tags, fused parts or gaps G12D): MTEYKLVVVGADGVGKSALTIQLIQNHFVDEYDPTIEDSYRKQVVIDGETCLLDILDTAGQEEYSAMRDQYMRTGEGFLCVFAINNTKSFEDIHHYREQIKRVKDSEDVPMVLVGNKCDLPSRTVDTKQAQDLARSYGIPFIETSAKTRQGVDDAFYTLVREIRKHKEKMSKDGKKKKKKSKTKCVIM
GDP-bound KRAS protein (aa 1-169), containing both G12D and C118A amino acid substitutions, sequence (P01116 other isoform, or with tags, fused parts or gaps G12D/C118A): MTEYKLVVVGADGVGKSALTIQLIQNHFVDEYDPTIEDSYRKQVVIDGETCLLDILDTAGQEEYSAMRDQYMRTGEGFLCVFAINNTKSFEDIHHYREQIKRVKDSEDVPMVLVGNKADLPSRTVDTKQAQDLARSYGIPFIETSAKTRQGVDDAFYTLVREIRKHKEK

Turning to `C[C@@]12CCCN(C1)c1nc(OC[C@@]34CCCN3C[C@H](F)C4)nc3c(F)c(ncc13)-c1cccc3ccc(F)c(c13)CCOC(=O)N2` [Example 77, (15R)-22,31-difluoro-8-(((2R,7aS)-2-fluorotetrahydro-1H-pyrrolo[1,2-a]pyrrol-7a(5H)-yl)methoxy)-15-methyl-18-oxa-3,7,9,11,16-pentaazahexacyclo[19.7.1.1~2,6~.1~11,15~.0~5,10~.0~25,29~]hentriaconta-1(29),2(31),3,5,7,9,21,23,25,27-decaen-17-one], the IC50 in the assay with AsPC-1 cells worked out at 2140 nM; in assay [1] it was 14 nM; in assay [2], 745 nM; in assay [3] it was 7 nM.
Regarding `O=C1C[C@H]2CN(CCO2)c2nc(OC[C@@]34CCCN3C[C@H](F)C4)nc3c(F)c(ncc23)-c2c(c(Cl)cc3[nH]ncc23)CCCO1` [Example 79, (17S)-9-chloro-30-fluoro-24-(((2R,7aS)-2-fluorotetrahydro-1H-pyrrolo[1,2-a]pyrrol-7a(5H)-yl)methoxy)-14,18-dioxa-5,6,21,23,25,29-hexaazahexacyclo[24.3.1.1~17,21~.0~2,10~.0~3,7~.0~22,27~]hentriaconta-1(30),2,4,7,9,22,24,26,28-nonaen-15-one], the IC50 stood at 60 nM in the assay on AsPC-1 cells, 4 nM in assay [1], 4 nM in assay [2] and 3 nM in assay [3].
`Cc1cc2[nH]ncc2c2c1CCCOC(=O)O[C@H]1CN(CC[C@H]1C)c1nc(OC[C@@]34CCCN3C[C@H](F)C4)nc3c(F)c-2ncc13` [Example 94, (17R,18R)-30-fluoro-24-(((2R,7aS)-2-fluorotetrahydro-1H-pyrrolo[1,2-a]pyrrol-7a(5H)-yl)methoxy)-9,18-dimethyl-14,16-dioxa-5,6,21,23,25,29-hexaazahexacyclo[24.3.1.1~17,21~.0~2,10~.0~3,7~.0~22,27~]hentriaconta-1(30),2,4,7,9,22,24,26,28-nonaen-15-one]: the IC50 is 1000 nM with AsPC-1 cells, 10 nM in assay [1], 222 nM in assay [2] and 6 nM in assay [3].
As to `Cc1cc2[nH]ncc2c2c1CCCC(=O)OCCC1CCCN(C1)c1nc(OC[C@@]34CCCN3C[C@H](F)C4)nc3c(F)c-2ncc13` (some centres unmarked) [Example 105], the IC50 worked out at 1940 nM in the assay with AsPC-1 cells, 14 nM in assay [1], 245 nM in assay [2] and 8 nM in assay [3].
For `Cc1cc2[nH]ncc2c2c1CCCC(=O)OC[C@@H]1CCCN(C1)c1nc(OC[C@@]34CCCN3C[C@H](F)C4)nc3c(F)c-2ncc13` [Example 106], in that order: 270 nM, 4 nM, 29 nM and 1 nM.
The like results for `O=C1OCCC2CCc3cc4[nH]ncc4c(c32)-c2ncc3c(nc(OC[C@@]45CCCN4C[C@H](F)C5)nc3c2F)N2CCC[C@H](C2)O1` (some centres unmarked) [Example 125] were, in that order, 410 nM, 9 nM, 66 nM and 5 nM.
Take `CN1C(=O)CC[C@@H]2C[C@@H]2c2c(Cl)cc3[nH]ncc3c2-c2ncc3c(nc(OC[C@@]45CCCN4C[C@H](F)C5)nc3c2F)N2CCC[C@@H]1C2` [Example 128, (11S,13R,18R)-9-Chloro-31-fluoro-25-(((2R,7aS)-2-fluorotetrahydro-1H-pyrrolo[1,2-a]pyrrol-7a(5H)-yl)methoxy)-17-methyl-5,6,17,22,24,26,30-heptaazaheptacyclo[25.3.1.1˜18,22˜.0˜2,10˜.0˜3,7˜.0˜11,13˜.0˜23,28˜]dotriaconta-1(31),2,4,7,9,23,25,27,29-nonaen-16-one bis (2,2,2-trifluoroacetate)]: the IC50 in the assay on AsPC-1 cells was determined as 1260 nM; in assay [1], 68 nM; in assay [2] it was 248 nM; in assay [3], 46 nM.
With `Cc1cc2[nH]ncc2c2c1C/C=C/COC[C@@H]1CCCN(C1)c1nc(OC[C@@]34CCCN3C[C@H](F)C4)nc3c(F)c-2ncc13` [Example 130], the IC50 was 230 nM in the assay on AsPC-1 cells, 5 nM in assay [1], 32 nM in assay [2] and 2 nM in assay [3].
`Fc1c2ncc3c(nc(OC[C@@]45CCCN4C[C@H](F)C5)nc13)N1CCC[C@@H](COCCCCc3c(Cl)cc4[nH]ncc4c3-2)C1` [Example 138]: the IC50 in the assay on AsPC-1 cells was found to be 5000 nM; in assay [1], 4 nM; in assay [2], 13 nM; in assay [3], 2 nM.
For the compound `Fc1c2ncc3c(nc(OC[C@@]45CCCN4C[C@H](F)C5)nc13)N1CCC[C@@H](CCOCCCc3c(Cl)cc4[nH]ncc4c3-2)C1` [Example 139], the IC50 in the assay with AsPC-1 cells was 910 nM; in assay [1], 6 nM; in assay [2], 114 nM; in assay [3], 3 nM.
The like results for `O=S1(=O)CCCCc2c(Cl)cc3[nH]ncc3c2-c2ncc3c(nc(OC[C@@]45CCCN4C[C@H](F)C5)nc3c2F)N2CCC[C@H](C2)C1` [Example 145] were, in that order, 5000 nM, 68 nM, 4670 nM and 63 nM.
Turning to `CN1C(=O)CCCc2c(F)ccc3cccc(c23)-c2ncc3c(nc(OC[C@@]45CCCN4C[C@H](F)C5)nc3c2F)N2CCC[C@]1(C)C2` [Example 167, (15R)-22,31-difluoro-8-(((2R,7aS)-2-fluorotetrahydro-1H-pyrrolo[1,2-a]pyrrol-7a(5H)-yl)methoxy)-15,16-dimethyl-3,7,9,11,16-pentaazahexacyclo[19.7.1.1~2,6~.1~11,15~.0~5,10~.0~25,29~]hentriaconta-1(29),2(31),3,5,7,9,21,23,25,27-decaen-17-one], the IC50 in the assay with AsPC-1 cells was determined as 5000 nM; in assay [1], 44 nM; in assay [2], 1590 nM; in assay [3] it was 20 nM.
In the case of `Cc1cc2[nH]ncc2c2c1CCCCC(=O)N[C@H]1CN(C[C@H]3C[C@H]31)c1nc(OC[C@@]34CCCN3C[C@H](F)C4)nc3c(F)c-2ncc13` [Example 171, (26R,27R,29S)-32-fluoro-4-(((2R,7aS)-2-fluorotetrahydro-1H-pyrrolo[1,2-a]pyrrol-7a(5H)-yl)methoxy)-18-methyl-1,3,5,9,14,15,25-heptaazaheptacyclo[24.4.1.1~6,10~.0~2,7~.0~11,19~.0~12,16~.0~27,29~]dotriaconta-2,4,6,8,10(32),11,13,16,18-nonaen-24-one], the IC50 with AsPC-1 cells worked out at 1090 nM; in assay [1], 6 nM; in assay [2], 106 nM; in assay [3], 4 nM.
Take `O=C1N[C@H]2CN(C[C@H]3C[C@H]32)c2nc(OC[C@@]34CCCN3C[C@H](F)C4)nc3c(F)c(ncc23)-c2c(c(Cl)cc3[nH]ncc23)CCC[C@@H]1F` [Example 175, (23S,26R,27R,29S)-18-chloro-23,32-difluoro-4-(((2R,7aS)-2-fluorotetrahydro-1H-pyrrolo[1,2-a]pyrrol-7a(5H)-yl)methoxy)-1,3,5,9,14,15,25-heptaazaheptacyclo[24.4.1.1~6,10~.0~2,7~.0~11,19~.0~12,16~.0~27,29~]dotriaconta-2,4,6,8,10(32),11,13,16,18-nonaen-24-one]: the IC50 in the assay on AsPC-1 cells was determined as 123 nM; in assay [1] it was 5 nM; in assay [2], 27.7 nM; in assay [3], 4 nM.
